Assay results reported in ChEMBL document CHEMBL1124008, “Synthesis and antifolate activity of 5-methyl-5,10-dideaza analogues of aminopterin and folic acid and an alternative synthesis of 5,10-dideazatetrahydrofolic acid, a potent inhibitor of glycinamide ribonucleotide formyltransferase” (J Med Chem, 1988).

Key:
L1210 [1] = assay: Influx characteristics toward L1210 cells was evaluated; type: functional, cell-based; conditions: Mus musculus
[2] = biological target: Trifunctional purine biosynthetic protein adenosine-3 (Homo sapiens) (UniProt P22102); assay: Inhibition of GAR transformylase from mammalian Manca
Chain of Trifunctional purine biosynthetic protein adenosine-3 (Homo sapiens) (P22102 whole entry, looked up): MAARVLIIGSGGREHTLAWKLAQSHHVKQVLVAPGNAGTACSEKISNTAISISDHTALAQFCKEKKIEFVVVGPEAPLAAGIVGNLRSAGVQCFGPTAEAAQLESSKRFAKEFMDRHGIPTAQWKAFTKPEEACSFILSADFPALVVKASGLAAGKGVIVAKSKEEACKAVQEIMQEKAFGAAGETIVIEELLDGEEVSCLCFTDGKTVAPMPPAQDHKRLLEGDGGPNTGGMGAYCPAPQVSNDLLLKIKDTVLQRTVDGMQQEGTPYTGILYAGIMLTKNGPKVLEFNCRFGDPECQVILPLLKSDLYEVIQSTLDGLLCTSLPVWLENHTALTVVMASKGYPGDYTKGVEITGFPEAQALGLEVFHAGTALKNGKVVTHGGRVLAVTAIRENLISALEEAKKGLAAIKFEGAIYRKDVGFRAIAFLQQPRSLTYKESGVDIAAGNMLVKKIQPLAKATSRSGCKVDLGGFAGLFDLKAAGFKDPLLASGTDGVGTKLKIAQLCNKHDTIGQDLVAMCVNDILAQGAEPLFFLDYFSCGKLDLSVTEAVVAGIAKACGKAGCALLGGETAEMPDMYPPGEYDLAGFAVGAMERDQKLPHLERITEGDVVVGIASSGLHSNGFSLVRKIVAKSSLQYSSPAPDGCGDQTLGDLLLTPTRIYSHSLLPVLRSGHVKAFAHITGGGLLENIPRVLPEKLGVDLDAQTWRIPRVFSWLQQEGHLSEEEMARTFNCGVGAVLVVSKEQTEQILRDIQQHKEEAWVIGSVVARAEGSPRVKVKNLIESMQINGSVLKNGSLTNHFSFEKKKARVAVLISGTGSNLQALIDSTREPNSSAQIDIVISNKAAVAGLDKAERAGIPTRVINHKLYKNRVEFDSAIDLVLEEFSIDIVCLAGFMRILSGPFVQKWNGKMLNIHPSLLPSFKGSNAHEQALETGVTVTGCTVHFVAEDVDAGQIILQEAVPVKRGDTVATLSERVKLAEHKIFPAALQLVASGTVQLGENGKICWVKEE

Dihydrofolate reductase [3] = biological target: Dihydrofolate reductase (Lactobacillus casei, UniProt P00381); assay: Evaluated for inhibition of dihydrofolate reductase (DHFR) from Lactobacillus casei; parameters: species or system Lacticaseibacillus casei
Chain of Dihydrofolate reductase (Lactobacillus casei, UniProt P00381) (P00381 whole entry): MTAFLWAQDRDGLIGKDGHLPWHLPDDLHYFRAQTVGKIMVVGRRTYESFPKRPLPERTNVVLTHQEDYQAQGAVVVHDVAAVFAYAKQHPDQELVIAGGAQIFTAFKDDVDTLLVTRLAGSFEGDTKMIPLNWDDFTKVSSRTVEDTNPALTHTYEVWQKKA

Dihydrofolate reductase [4] = biological target: T1, Dihydrofolate reductase (Mus musculus, UniProt P00375); assay: Evaluated for inhibition of dihydrofolate reductase (DHFR) isolated from L1210 cells; type: cell-based
T1 sequence (P00375 whole entry): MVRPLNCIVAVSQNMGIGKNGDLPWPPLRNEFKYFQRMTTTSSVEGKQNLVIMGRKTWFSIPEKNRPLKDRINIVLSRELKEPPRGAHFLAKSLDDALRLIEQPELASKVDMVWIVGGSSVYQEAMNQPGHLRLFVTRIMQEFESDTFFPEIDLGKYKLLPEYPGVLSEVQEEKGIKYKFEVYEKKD

L1210 [5] = assay: Evaluated for cell growth inhibition of L1210 cells in cultures; type: functional, cell-based; conditions: Mus musculus
Thymidylate synthase = biological target: T2, Thymidylate synthase (Lactobacillus casei, UniProt P00469); assay: Evaluated for inhibition of thymidylate synthase (TS) from Lactobacillus casei; parameters: species or system Lacticaseibacillus casei
T2 sequence (P00469 whole entry): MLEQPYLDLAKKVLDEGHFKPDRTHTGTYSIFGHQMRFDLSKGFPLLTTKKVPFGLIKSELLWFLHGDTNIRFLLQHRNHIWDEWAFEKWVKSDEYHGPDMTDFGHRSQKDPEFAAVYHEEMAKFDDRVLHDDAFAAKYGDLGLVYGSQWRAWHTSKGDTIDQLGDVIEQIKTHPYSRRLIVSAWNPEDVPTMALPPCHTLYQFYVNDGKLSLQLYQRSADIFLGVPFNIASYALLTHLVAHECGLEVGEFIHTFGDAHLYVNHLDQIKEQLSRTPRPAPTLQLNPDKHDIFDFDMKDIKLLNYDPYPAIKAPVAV

[6] = biological target: T3, Trifunctional purine biosynthetic protein adenosine-3 (Mus musculus, UniProt Q64737); assay: Inhibition of GAR transformylase from mammalian L1210 cells; type: cell-based
T3 sequence (Q64737 whole entry): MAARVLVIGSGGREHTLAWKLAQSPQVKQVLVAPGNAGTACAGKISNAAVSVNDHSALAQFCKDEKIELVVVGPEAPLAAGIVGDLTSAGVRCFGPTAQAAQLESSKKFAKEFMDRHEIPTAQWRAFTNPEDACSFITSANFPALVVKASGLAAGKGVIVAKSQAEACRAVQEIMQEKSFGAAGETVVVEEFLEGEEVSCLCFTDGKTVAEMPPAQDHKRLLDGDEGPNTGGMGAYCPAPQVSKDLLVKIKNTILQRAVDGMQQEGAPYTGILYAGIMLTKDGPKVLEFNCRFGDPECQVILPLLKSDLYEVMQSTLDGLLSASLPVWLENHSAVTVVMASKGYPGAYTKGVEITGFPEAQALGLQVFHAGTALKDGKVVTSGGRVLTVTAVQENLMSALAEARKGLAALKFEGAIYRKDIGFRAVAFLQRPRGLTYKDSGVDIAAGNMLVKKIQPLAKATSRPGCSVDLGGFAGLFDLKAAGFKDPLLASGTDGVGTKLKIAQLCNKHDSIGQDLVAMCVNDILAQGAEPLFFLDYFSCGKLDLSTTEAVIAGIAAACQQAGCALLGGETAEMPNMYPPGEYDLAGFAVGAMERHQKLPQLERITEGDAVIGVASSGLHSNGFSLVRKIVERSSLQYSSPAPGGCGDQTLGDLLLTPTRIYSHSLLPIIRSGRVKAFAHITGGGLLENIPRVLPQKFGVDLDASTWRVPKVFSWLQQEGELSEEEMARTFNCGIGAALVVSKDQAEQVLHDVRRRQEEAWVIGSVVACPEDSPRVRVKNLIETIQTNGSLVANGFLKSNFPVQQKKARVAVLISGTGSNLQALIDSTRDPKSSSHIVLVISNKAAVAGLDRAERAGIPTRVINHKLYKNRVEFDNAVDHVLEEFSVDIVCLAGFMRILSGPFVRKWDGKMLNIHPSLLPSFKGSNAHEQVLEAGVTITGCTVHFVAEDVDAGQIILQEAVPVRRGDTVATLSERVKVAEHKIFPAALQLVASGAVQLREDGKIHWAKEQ

L1210 [7] = assay: Efflux characteristics in the L1210 cells was evaluated; type: functional, Mus musculus

IC50 (L1210 [5])	Structure (SMILES)	Km (L1210 [1])	IC50 [2]	IC50 (Dihydrofolate reductase [3])	Ki (Dihydrofolate reductase [4])	IC50 (Thymidylate synthase)	IC50 [6]	k (L1210 [7])
–	Cc1c(CCc2ccc(C(=O)NC(CCC(=O)O)C(=O)O)cc2)cnc2nc(N)[nH]c(=O)c12 (stereo not given)	–	> 20000 nM	16000 nM	> 1 nM	44000 nM	> 20000 nM	–
23.2 nM	Cc1c(CCc2ccc(C(=O)NC(CCC(=O)O)C(=O)O)cc2)cnc2nc(N)nc(N)c12 (stereo not given)	1.25 µM	–	23 nM	0.0283 nM	2900 nM	–	0.5 min⁻¹
36400 nM	Cc1c(CCc2ccc(C(=O)NC(CCC(=O)O)C(=O)O)cc2)cnc2nc(N)nc(O)c12 (stereo not given)	18.8 µM	–	–	–	–	–	–
2.1 nM	CN(Cc1cnc2nc(N)nc(N)c2n1)c1ccc(C(=O)N[C@@H](CCC(=O)O)C(=O)O)cc1 [METHOTREXATE]	3.95 µM	–	–	–	–	–	0.22 min⁻¹

Structure (SMILES)	IC50 (L1210 [5])	Km (L1210 [1])	IC50 [2]	IC50 (Dihydrofolate reductase [3])	Ki (Dihydrofolate reductase [4])	IC50 (Thymidylate synthase)	IC50 [6]	k (L1210 [7])
CC1c2c(O)nc(N)nc2NCC1CCc1ccc(C(=O)NC(CCC(=O)O)C(=O)O)cc1 (racemic)	490 nM	1.62 µM	14000 nM	> 100000 nM	> 1 nM	> 100000 nM	80000 nM	–
CCC1c2c(O)nc(N)nc2NCC1CCc1ccc(C(=O)NC(CCC(=O)O)C(=O)O)cc1 (racemic)	57.2 nM	2.48 µM	500 nM	19000 nM	> 1 nM	> 100000 nM	500 nM	–
